{
  "source": "paper PMC11233931",
  "about": "“Remodeling tumor‐associated macrophage for anti‐cancer effects by rational design of irreversible inhibition of mitogen‐activated protein kinase‐activated protein kinase 2” (MedComm, 2024)",
  "assay_in_all_cases": "Eurofins kinase selectivity profile against 380 other human recombinant kinases (Table S2)",
  "assay_type_in_all_cases": "biochemical",
  "key": {"[1]": {"target": "T1, 380 human recombinant protein kinases (Homo sapiens, UniProt O75914)", "T1 construct": "purchased Eurofins (Celle Lévescault)", "T1 sequence (O75914 whole entry)": "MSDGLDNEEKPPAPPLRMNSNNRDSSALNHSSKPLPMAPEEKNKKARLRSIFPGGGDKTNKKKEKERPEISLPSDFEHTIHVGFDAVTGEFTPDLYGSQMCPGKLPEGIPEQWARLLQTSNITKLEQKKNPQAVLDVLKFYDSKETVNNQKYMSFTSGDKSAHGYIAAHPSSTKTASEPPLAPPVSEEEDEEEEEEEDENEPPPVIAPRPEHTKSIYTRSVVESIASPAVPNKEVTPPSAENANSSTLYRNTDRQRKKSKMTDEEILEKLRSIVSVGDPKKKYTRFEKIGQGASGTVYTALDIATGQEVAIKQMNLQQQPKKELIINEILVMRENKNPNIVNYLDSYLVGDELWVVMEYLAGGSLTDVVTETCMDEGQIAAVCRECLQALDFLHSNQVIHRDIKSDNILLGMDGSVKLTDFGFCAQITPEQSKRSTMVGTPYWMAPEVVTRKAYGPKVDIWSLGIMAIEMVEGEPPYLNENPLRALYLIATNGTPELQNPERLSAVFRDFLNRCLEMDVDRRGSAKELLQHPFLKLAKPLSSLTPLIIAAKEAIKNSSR", "details": "PAK3(h), read-out: Inhibition rate", "procedure": "(§1) Subsequently, to ascertain whether the high potency of compound 11 was specific for MK2, an additional 380 human recombinant protein kinases were screened.\n(§2) To assess the impact of various compounds on MK2 kinase activity, we utilized the ADP‐Glo Assay Kit (Promega) following the manufacturer's instructions. Luminescence measurements were taken using a SpectraMax Paradigm reader. The inhibition percentage was calculated using the following formula: ((specific signalDMSO control − specific signal inhibitor)/(specific signalDMSO control)) × 100%. The IC50 values were determined employing dose–response curve fitting via Prism (Graph Pad). Additionally, Eurofins company (Celle Lévescault) conducted the analysis on compound 11’s inhibitory activity against 380 other human recombinant kinases at various concentrations."}, "[2]": {"target": "T2, 380 human recombinant protein kinases (Homo sapiens, UniProt Q96SB4)", "T2 construct": "purchased Eurofins (Celle Lévescault)", "T2 sequence (Q96SB4 whole entry)": "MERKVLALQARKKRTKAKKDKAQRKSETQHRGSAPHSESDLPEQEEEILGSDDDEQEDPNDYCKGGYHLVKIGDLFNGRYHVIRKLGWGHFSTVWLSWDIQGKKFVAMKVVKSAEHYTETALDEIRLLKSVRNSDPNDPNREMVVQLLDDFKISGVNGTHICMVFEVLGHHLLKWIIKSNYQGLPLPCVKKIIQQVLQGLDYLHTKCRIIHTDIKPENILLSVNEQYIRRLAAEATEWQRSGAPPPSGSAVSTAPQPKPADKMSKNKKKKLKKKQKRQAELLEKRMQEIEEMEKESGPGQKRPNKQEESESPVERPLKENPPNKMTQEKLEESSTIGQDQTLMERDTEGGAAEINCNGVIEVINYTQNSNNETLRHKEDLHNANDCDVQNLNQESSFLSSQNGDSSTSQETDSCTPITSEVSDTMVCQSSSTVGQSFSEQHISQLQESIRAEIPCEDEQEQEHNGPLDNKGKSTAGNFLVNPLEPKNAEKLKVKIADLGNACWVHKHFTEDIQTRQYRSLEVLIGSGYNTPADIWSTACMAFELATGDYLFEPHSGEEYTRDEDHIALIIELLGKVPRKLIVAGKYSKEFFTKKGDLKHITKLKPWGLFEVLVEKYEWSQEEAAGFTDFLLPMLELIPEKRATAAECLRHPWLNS", "details": "SRPK1(h), read-out: Inhibition rate (%)", "procedure": "as §1, §2"}, "[3]": {"target": "T3, 380 human recombinant protein kinases (Homo sapiens, UniProt P54760)", "T3 construct": "purchased Eurofins (Celle Lévescault)", "T3 sequence (P54760 16-987)": "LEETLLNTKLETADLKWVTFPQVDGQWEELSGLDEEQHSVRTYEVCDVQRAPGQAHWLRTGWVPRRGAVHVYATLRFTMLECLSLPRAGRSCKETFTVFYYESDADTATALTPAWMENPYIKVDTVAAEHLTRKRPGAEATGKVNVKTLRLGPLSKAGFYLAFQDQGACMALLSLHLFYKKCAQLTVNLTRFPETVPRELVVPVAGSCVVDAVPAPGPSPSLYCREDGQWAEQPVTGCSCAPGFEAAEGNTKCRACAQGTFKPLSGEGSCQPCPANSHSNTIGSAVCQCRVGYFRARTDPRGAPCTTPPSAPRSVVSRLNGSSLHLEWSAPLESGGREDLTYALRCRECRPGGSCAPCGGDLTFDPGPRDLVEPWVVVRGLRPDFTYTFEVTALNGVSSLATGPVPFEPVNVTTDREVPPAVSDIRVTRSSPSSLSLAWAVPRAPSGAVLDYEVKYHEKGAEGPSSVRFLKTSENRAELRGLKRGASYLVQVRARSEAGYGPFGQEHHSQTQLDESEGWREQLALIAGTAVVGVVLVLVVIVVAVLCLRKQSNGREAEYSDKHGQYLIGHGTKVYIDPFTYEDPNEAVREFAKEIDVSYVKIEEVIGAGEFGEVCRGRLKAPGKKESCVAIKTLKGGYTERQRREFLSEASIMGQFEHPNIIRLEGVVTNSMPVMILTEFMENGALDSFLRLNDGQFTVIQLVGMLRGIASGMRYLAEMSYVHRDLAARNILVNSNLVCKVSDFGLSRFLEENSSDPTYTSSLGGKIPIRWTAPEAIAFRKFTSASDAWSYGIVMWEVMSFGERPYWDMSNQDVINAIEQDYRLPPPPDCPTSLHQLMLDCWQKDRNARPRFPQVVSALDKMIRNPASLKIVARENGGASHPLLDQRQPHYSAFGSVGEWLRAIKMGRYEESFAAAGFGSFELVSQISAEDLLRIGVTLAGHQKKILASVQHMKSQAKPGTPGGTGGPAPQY", "details": "EphB4(h), read-out: Inhibition rate", "procedure": "as §1, §2"}, "[4]": {"target": "T4, 380 human recombinant protein kinases (Homo sapiens, UniProt O75116)", "T4 construct": "purchased Eurofins (Celle Lévescault)", "T4 sequence (O75116 whole entry)": "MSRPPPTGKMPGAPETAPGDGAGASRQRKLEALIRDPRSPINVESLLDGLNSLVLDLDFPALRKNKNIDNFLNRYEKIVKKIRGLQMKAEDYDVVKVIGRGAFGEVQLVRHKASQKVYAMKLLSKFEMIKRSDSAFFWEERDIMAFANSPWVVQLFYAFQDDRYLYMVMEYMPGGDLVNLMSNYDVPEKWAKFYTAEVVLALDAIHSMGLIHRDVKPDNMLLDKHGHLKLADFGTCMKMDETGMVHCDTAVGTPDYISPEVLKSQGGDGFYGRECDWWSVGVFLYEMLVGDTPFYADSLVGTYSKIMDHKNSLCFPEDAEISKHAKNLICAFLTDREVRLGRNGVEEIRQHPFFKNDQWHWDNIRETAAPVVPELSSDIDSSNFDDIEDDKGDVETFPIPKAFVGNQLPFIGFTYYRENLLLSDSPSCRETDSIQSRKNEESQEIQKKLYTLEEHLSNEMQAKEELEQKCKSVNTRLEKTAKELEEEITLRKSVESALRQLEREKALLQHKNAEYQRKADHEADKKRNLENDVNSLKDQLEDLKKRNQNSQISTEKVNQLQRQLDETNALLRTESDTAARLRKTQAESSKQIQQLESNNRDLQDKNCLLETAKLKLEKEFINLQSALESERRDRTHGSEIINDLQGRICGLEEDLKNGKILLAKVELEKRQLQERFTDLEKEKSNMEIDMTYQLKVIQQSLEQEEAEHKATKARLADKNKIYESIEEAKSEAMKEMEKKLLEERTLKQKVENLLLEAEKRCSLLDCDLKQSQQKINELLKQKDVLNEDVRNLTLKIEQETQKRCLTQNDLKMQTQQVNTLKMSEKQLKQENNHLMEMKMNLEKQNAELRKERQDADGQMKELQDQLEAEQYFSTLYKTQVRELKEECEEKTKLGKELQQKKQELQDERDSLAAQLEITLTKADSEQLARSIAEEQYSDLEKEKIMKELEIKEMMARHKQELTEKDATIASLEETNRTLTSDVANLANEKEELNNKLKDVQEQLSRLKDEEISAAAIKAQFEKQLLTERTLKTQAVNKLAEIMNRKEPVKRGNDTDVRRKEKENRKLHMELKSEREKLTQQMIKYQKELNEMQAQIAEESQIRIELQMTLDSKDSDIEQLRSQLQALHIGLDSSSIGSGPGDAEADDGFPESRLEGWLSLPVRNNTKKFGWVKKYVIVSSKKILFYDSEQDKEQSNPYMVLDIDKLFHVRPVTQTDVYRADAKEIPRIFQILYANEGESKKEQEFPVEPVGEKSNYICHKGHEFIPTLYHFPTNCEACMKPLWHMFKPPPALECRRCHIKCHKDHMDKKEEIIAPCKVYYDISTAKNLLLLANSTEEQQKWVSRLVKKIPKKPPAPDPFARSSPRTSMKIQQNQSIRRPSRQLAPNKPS", "details": "ROCK-II(h), read-out: Inhibition rate", "procedure": "as §1, §2"}, "[5]": {"target": "T5, 380 human recombinant protein kinases (Homo sapiens, UniProt P36896)", "T5 construct": "purchased Eurofins (Celle Lévescault)", "T5 sequence (P36896 24-505)": "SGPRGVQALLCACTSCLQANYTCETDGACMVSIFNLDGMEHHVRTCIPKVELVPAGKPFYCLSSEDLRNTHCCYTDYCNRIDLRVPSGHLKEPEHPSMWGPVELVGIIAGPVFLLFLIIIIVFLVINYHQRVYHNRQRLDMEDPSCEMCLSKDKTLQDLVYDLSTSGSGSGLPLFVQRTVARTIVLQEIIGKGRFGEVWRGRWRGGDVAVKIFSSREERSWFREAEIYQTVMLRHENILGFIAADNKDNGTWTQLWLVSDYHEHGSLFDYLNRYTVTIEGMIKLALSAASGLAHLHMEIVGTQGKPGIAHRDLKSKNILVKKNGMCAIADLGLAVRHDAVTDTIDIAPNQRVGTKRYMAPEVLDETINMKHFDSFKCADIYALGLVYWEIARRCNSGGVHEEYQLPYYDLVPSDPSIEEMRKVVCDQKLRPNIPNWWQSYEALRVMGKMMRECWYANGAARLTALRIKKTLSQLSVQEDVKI", "details": "ALK4(h), read-out: Inhibition rate", "procedure": "as §1, §2"}},
  "data": [
    {"smiles": "C=CC(=O)Nc1cc(-c2cc(-c3cc4c([nH]3)CCNC4=O)ccn2)ccc1OC(F)(F)F", "note": "[compound 11]", "values": [
      {"measurement": "inhibition at 0.01 µM", "setting": "[1]; 10 nM", "result": -4, "unit": "%"},
      {"measurement": "inhibition at 0.1 µM", "setting": "[1]; 100 nM", "result": 0, "unit": "%"},
      {"measurement": "inhibition at 1 µM", "setting": "[1]; 1000 nM", "result": -3, "unit": "%"},
      {"measurement": "inhibition at 0.01 µM", "setting": "[2]; 10 nM", "result": 6, "unit": "%"},
      {"measurement": "inhibition at 0.1 µM", "setting": "[2]; 100 nM", "result": 13, "unit": "%"},
      {"measurement": "inhibition at 1 µM", "setting": "[2]; 1000 nM", "result": 22, "unit": "%"},
      {"measurement": "inhibition at 0.01 µM", "setting": "[3]; 10 nM", "result": -4, "unit": "%"},
      {"measurement": "inhibition at 0.1 µM", "setting": "[3]; 100 nM", "result": -15, "unit": "%"},
      {"measurement": "inhibition at 1 µM", "setting": "[3]; 1000 nM", "result": -4, "unit": "%"},
      {"measurement": "inhibition at 0.01 µM", "setting": "[4]; 10 nM", "result": -3, "unit": "%"},
      {"measurement": "inhibition at 0.1 µM", "setting": "[4]; 100 nM", "result": 0, "unit": "%"},
      {"measurement": "inhibition at 1 µM", "setting": "[4]; 1000 nM", "result": -6, "unit": "%"},
      {"measurement": "inhibition at 0.01 µM", "setting": "[5]; 10 nM", "result": 26, "unit": "%"},
      {"measurement": "inhibition at 0.1 µM", "setting": "[5]; 100 nM", "result": 16, "unit": "%"},
      {"measurement": "inhibition at 1 µM", "setting": "[5]; 1000 nM", "result": 6, "unit": "%"}
    ]}
  ]
}
